Source: US8691753B2 (priority 2009, dated 2014)
Like-named read-outs stand apart in the source and are kept apart here.

Tests used:
Format in all cases: biochemical
[1] = target: MMP-10h (Homo sapiens (Human), UniProt P09238); assay: Inhibition constant (Ki) on MMP-10h; details: human MMP-10
[2] = target: MMP-8h (Homo sapiens (Human), UniProt P22894); assay: Inhibition constant (Ki) on MMP-8h; details: human MMP-8
[3] = target: MMP-12h (Homo sapiens (Human), UniProt P39900); assay: Inhibition constant (Ki) on MMP-12h; details: human MMP-12
[4] = target: MMP-13h (Homo sapiens (Human), UniProt P45452); assay: Inhibition constant (Ki) on MMP-13h; details: human MMP-13
Description: (§1) The inhibition constant Ki of these compounds has been determined according to the protocol described by Devel et al, 2006, J. Biol. Chem. (7).
(§2) In this table I and also in table II below, “h” corresponds to human. All of the compounds have therefore been evaluated on human MMPs.

[5] = target: MMP-2h (Homo sapiens (Human), UniProt P08253); assay: Inhibition constant (Ki) on MMP-2h; details: human MMP-2
Description: as §1, §2

[6] = target: MMP-14h (Homo sapiens (Human), UniProt P50281); assay: Inhibition constant (Ki) on MMP-14h; details: human MMP-14
Description: as §1, §2

[7] = target: MMP-3h (Homo sapiens (Human), UniProt P08254); assay: Inhibition constant (Ki) on MMP-3h; details: human MMP-3
Description: as §1, §2

[8] = target: MMP-9h (Homo sapiens (Human), UniProt P14780); assay: Inhibition constant (Ki) on MMP-9h; details: human MMP-9
Description: as §1, §2

MMP-2h, sequence (P08253 110-660): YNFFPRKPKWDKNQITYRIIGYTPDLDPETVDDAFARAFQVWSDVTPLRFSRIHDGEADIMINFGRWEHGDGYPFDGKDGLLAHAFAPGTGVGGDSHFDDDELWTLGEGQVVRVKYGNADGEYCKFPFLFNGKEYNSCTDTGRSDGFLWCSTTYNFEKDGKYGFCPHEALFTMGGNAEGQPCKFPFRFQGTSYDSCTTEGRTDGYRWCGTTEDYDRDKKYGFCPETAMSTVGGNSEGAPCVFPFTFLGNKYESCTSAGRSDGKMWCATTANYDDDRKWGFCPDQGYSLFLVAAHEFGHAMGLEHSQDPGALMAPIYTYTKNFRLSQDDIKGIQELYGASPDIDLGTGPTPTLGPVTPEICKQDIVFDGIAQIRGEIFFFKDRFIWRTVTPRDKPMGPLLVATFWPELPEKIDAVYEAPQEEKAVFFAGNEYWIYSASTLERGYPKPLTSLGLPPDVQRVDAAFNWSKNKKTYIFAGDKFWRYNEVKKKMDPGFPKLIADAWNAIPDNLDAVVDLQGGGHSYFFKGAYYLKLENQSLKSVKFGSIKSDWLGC
MMP-9h, sequence (P14780 94-707): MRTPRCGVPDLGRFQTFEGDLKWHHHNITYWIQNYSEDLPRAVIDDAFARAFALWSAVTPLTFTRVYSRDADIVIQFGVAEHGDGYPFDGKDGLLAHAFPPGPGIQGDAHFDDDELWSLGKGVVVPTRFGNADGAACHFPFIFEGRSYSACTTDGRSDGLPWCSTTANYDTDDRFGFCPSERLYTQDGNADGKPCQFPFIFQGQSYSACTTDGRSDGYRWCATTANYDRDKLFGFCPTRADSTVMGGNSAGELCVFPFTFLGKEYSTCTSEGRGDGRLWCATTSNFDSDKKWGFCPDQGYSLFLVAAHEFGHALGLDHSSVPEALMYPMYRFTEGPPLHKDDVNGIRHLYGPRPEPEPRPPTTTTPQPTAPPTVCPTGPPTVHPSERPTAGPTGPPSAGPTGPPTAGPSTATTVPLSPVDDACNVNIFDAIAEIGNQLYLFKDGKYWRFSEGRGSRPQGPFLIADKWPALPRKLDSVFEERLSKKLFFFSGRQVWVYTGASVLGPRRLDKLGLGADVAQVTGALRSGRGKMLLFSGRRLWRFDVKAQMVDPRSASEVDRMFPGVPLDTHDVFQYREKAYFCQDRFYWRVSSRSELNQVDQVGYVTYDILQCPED
MMP-12h, sequence (P39900 106-470): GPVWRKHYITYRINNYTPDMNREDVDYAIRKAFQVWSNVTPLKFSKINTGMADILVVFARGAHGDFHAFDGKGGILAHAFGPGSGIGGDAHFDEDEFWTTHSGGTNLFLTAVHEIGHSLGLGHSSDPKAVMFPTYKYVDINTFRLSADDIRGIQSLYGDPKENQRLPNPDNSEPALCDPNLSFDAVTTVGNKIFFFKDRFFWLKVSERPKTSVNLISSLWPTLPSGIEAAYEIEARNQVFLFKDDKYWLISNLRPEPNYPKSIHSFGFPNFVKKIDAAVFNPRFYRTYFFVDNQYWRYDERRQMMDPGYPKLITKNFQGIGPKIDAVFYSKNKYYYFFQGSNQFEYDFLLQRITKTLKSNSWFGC
MMP-10h, sequence (P09238 99-476): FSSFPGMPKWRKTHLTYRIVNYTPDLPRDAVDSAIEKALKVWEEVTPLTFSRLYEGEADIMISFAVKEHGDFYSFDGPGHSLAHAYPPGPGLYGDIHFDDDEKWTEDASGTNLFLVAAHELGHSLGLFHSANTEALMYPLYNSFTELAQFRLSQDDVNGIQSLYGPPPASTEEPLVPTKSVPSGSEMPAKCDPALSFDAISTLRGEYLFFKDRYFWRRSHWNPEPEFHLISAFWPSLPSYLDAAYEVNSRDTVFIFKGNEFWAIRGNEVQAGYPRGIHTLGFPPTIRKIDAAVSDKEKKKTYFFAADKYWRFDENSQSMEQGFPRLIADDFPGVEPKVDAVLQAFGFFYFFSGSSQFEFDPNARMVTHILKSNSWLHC
MMP-8h, sequence (P22894 101-467): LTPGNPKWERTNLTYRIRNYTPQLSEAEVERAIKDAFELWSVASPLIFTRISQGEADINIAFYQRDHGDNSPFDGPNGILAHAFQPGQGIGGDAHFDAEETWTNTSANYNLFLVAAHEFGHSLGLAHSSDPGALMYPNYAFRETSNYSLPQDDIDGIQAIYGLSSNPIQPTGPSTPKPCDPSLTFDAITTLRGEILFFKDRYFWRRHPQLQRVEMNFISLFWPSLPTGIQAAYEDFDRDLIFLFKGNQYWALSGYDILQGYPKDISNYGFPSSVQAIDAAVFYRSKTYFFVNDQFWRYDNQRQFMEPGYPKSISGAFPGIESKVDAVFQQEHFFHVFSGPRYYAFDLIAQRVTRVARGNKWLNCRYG
MMP-3h, sequence (P08254 100-477): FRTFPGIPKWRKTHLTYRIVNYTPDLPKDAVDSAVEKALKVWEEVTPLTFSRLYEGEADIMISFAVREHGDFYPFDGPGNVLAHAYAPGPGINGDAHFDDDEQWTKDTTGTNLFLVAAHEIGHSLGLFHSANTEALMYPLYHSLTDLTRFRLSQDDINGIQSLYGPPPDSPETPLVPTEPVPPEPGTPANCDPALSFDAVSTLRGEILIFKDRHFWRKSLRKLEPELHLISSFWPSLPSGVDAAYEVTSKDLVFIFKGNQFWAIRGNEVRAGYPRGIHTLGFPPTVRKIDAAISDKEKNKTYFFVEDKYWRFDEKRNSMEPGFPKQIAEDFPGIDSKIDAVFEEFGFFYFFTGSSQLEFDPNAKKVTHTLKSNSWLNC

SMILES	Ki ([1]; read-out: Ki MMP-10h) [nM]	Ki ([2]; read-out: Ki MMP-8h) [nM]	Ki ([3]; read-out: Ki MMP-12h) [nM]	Ki ([4]; read-out: Ki MMP-13h) [nM]	Ki ([5]; read-out: Ki MMP-2h) [nM]	Ki ([6]; read-out: Ki MMP-14h) [nM]	Ki ([7]; read-out: Ki MMP-3h) [nM]	Ki ([8]; read-out: Ki MMP-9h) [nM]	Ki [1] [nM]	Ki [2] [nM]	Ki [3] [nM]	Ki [4] [nM]	Ki [5] [nM]	Ki [6] [nM]	Ki [7] [nM]	Ki [8] [nM]
NC(=O)CC[C@H](NC(=O)[C@H](CCC(=O)O)NC(=O)CCc1ccc(-c2cccs2)cc1)C(N)=O [Compound 81, (S)-5-((S)-1,5-diamino-1,5-dioxopentan-2-ylamino)-5-oxo-4-(3-(4-(thiophen-2-yl)phenyl)propanamido)pentanoic acid]	651	48	18.6	801	204	> 1000	> 10000	> 1000								
NC(=O)[C@H](CCC(=O)O)NC(=O)[C@H](CCC(=O)O)NC(=O)CCc1cc(-c2ccc(-c3ccccc3)cc2)no1 [Compound 16, (S)-5-amino-4-((S)-2-(3-(3-(biphenyl-4-yl)isoxazol-5-yl)propanamido)-4-carboxybutanamido)-5-oxopentanoic acid]									114	383	3.4	60	83	> 1000	78	> 1000
NC(=O)[C@H](CC(=O)O)NC(=O)[C@H](CCC(=O)O)NC(=O)CCc1ccc(-c2ccc(-c3ccccc3)cc2)cc1 [Compound 64, (S)-5-((S)-1-amino-3-carboxy-1-oxopropan-2-ylamino)-4-(3-(4′-phenylbiphenyl-4-yl)propanamido)-5-oxopentanoic acid]	35	287	3.3	23	55	> 5000	168	> 1000								
NCCCC[C@H](NC(=O)[C@H](CCC(=O)O)NC(=O)CCc1ccc(-c2ccc(-c3ccccc3)cc2)cc1)C(N)=O [Compound 63, (S)-5-((S)-1,6-diamino-1-oxohexan-2-ylamino)-4-(3-(4′-phenylbiphenyl-4-yl)propanamido)-5-oxopentanoic acid]	447	621	14.3	55	110	> 1000	> 1000	> 1000								
O=C(O)CC[C@H](NC(=O)CCc1ccc(-c2ccccc2)cc1)C(=O)N1CCC[C@@H](CC(=O)O)C1 [Compound 51, (S)-4-(3-(biphenyl-4-yl)propanamido)-5-((S)-3-(carboxymethyl)piperidin-1-yl)-5-oxopentanoic acid]	> 10000	929	259	> 1000	> 1000	> 5000	> 10000	> 1000								
NC(=O)[C@H](CCC(=O)O)NC(=O)[C@H](CC(=O)O)NC(=O)CCc1cc(-c2ccc(-c3cccc(Cl)c3)cc2)no1 [Compound 9, (S)-5-amino-4-((S)-3-carboxy-2-(3-(3-(3′-chlorobiphenyl-4-yl)isoxazol-5-yl)propanamido)propanamido)-5-oxopentanoic acid]	520	899	64	35	91	> 5000	381	> 1000								
NC(=O)[C@H](CCC(=O)O)NC(=O)[C@H](CCC(=O)O)NC(=O)CCc1ccc(-c2cccc(N)c2)cc1 [Compound 53, (S)-5-amino-4-((S)-2-(3-(3′-aminobiphenyl-4-yl)propanamido)-4-carboxybutanamido)-5-oxopentanoic acid]	> 1000	> 1000	190	> 1000	> 1000	> 1000	> 1000	> 1000								
NC(=O)[C@@H](CCC(=O)O)NC(=O)[C@H](CCC(=O)O)NC(=O)CCc1cc(-c2ccc(-c3cccc(Cl)c3)cc2)no1 [Compound 5, (R)-5-amino-4-((S)-4-carboxy-2-(3-(3-(3′-chlorobiphenyl-4-yl)isoxazol-5-yl)propanamido)butanamido)-5-oxopentanoic acid]	44	552	8.9	53	112	> 1000	240	> 1000								
Cc1csc(-c2ccc(CCC(=O)N[C@@H](CCC(=O)O)C(=O)N[C@@H](CCC(=O)O)C(N)=O)cc2)c1 [Compound 94, (S)-5-amino-4-((S)-4-carboxy-2-(3-(4-(4-methylthiophen-2-yl)phenyl)propanamido)butanamido)-5-oxopentanoic acid]	> 1000	233	22	> 1000	868	> 10000	> 1000	> 1000								
NC(=O)[C@H](CC(=O)O)NC(=O)[C@H](CCC(=O)O)NC(=O)CCc1ccc(-c2cccs2)cc1 [Compound 83, (S)-5-((S)-1-amino-3-carboxy-1-oxopropan-2-ylamino)-5-oxo-4-(3-(4-(thiophen-2-yl)phenyl)propanamido)pentanoic acid]	435	49	14.2	> 1000	334	> 1000	> 10000	> 1000								
O=C(O)CC[C@H](NC(=O)CCc1ccc(-c2cccs2)cc1)C(=O)N1CCC[C@@H](CC(=O)O)C1 [Compound 89, (S)-5-((S)-3-(carboxymethyl)piperidin-1-yl)-5-oxo-4-(3-(4-(thiophen-2-yl)phenyl)propanamido)pentanoic acid]	> 5000	94	124	> 1000	484	> 1000	> 100000	> 1000								
NC(=O)[C@H](Cc1ccc(O)cc1)NC(=O)[C@H](CCC(=O)O)NC(=O)CCc1ccc(-c2ccc(-c3ccccc3)cc2)cc1 [Compound 65, (S)-5-((S)-1-amino-3-(4-hydroxyphenyl)-1-oxopropan-2-ylamino)-4-(3-(4′-phenylbiphenyl-4-yl)propanamido)-5-oxopentanoic acid]	119	793	6.6	33	73	> 1000	620	> 1000								
NC(=O)[C@H](CO)NC(=O)[C@H](CCC(=O)O)NC(=O)CCc1ccc(-c2ccccc2)cc1 [Compound 49, (S)-5-((S)-1-amino-3-hydroxy-1-oxopropan-2-ylamino)-4-(3-(biphenyl-4-yl)propanamido)-5-oxopentanoic acid]	> 1000	204	41	> 1000	790	> 1000	> 5000	> 1000								
NC(=O)[C@H](Cc1c[nH]cn1)NC(=O)[C@H](CCC(=O)O)NC(=O)CCc1ccc(-c2ccccc2)cc1 [Compound 48, (S)-5-((S)-1-amino-3-(1H-imidazol-4-yl)-1-oxopropan-2-ylamino)-4-(3-(biphenyl-4-yl)propanamido)-5-oxopentanoic acid]	> 1000	339	75	> 1000	847	> 10000	> 10000	> 5000								
NC(=O)[C@H](CCC(=O)O)NC(=O)[C@H](CCC(=O)O)NC(=O)CCc1ccc(-c2cccc([N+](=O)[O-])c2)cc1 [Compound 55, (S)-5-amino-4-((S)-4-carboxy-2-(3-(3′-nitrobiphenyl-4-yl)propanamido)butanamido)-5-oxopentanoic acid]									> 1000	> 1000	73	436	> 1000	> 5000	878	685
